Results as given in US8476029B2, “MCPP immunoassay” (priority 2009, dated 2013).
Values after ≈ are worked out from the molar mass of the structure shown. Values joined by “and” are separate entries in the source; they are usually repeats but may differ in a detail not shown here. Identical values can stand only once. Like-named read-outs stand apart in the source and are kept apart here.

Key:
[1] = humans, urine; cited from earlier work
[2] = test system: Generic antibody (antibody raised from the mCPP-derived immunogen); type: binding, sheep; conditions: for % CR (percentage cross-reactivity): based on Nefazodone (100%); for IC50 (standard concentration which produces 50% B/B0): generic antibody
Procedure: (§1) The resulting immunogens were administered separately to adult sheep on a monthly basis to provide target-specific polyclonal antisera. IgG was extracted from the antisera via caprylic acid/ammonium sulphate precipitation of immunoglobulin. Microtitre plates (Thermo Scientific, 95029180) were coated with antibody (125 μl) in coating buffer (10 mM Tris pH 8.5) at 37° C. for 2 hours. […] The plates were then washed. […] The plates were then washed and 125 μl of TMB (Randox, 4380-15) was added to each well and left at room temperature for 20 minutes in the dark. The reaction was stopped using 125 μl of 0.2M sulphuric acid. The absorbances were then read at 450 nm with an ELISA microplate reader (BIO-TEK Instruments, EL340) and the means calculated. Antibody specificity and sensitivity were then determined.

[3] = test system: Trazodone antibody (antibody raised from the trazodone-derived immunogen); type: binding, sheep; conditions: for % CR (percentage cross-reactivity): based on Trazodone (100%)
Procedure: as §1

| SMILES | % CR (percentage cross-reactivity) [2] [%] | IC50 (standard concentration which produces 50% B/B0) [2] [ng/mL] | % B/B0 ([2]; standard conc 0.156 ng/ml) [%] | % B/B0 ([2]; standard conc 0.313 ng/ml) [%] | % B/B0 ([2]; standard conc 0.625 ng/ml) [%] | % B/B0 ([2]; standard conc 1.250 ng/ml) [%] | % B/B0 ([2]; standard conc 2.500 ng/ml) [%] | % B/B0 ([2]; standard conc 5.000 ng/ml) [%] | % B/B0 ([2]; standard conc 10.000 ng/ml) [%] | % CR (percentage cross-reactivity) [3] [%] | % B/B0 ([3]; standard conc 0.156 ng/ml) [%] | % B/B0 ([3]; standard conc 0.313 ng/ml) [%] | % B/B0 ([3]; standard conc 0.625 ng/ml) [%] | % B/B0 ([3]; standard conc 1.250 ng/ml) [%] | % B/B0 ([3]; standard conc 2.500 ng/ml) [%] | % B/B0 ([3]; standard conc 5.000 ng/ml) [%] | % B/B0 ([3]; standard conc 10.000 ng/ml) [%] | A450 (absorbance at 450 nm) ([2]; standard conc 0.156 ng/ml) | A450 (absorbance at 450 nm) ([2]; standard conc 0.313 ng/ml) | A450 (absorbance at 450 nm) ([2]; standard conc 0.625 ng/ml) | further results |
| --- | --- | --- | --- | --- | --- | --- | --- | --- | --- | --- | --- | --- | --- | --- | --- | --- | --- | --- | --- | --- | --- |
| CCc1nn(CCCN2CCN(c3cccc(Cl)c3)CC2)c(=O)n1CCOc1ccccc1 [Nefazodone] | 100 | 3.901 (≈ 0.0083 µM) | 91 | 83 | 73 | 58 | 46 | 34 | 24 | 1.38 | 97 | 99 | 97 | 100 | 99 | 105 | 107 | – | – | – | mCPP as share of total metabolites (minor urinary metabolite of nefazodone) [1]: less than 1%; A450 (absorbance at 450 nm) [3]: 1.621 and 1.677 and 1.663 and 1.765 and 1.799 and 1.631 and 1.656 |
| O=c1n(CCCN2CCN(c3cccc(Cl)c3)CC2)nc2ccccn12 [Trazodone, 2-(3-[4-(3-chlorophenyl)piperazin-1-yl]propyl)-[1,2,4]triazolo[4,3-α]pyridin-3(2H)-one] | 733 | – | 67 | 58 | 48 | 35 | 25 | 18 | 13 | 100 | 47 | 33 | 21 | 14 | 9 | 5 | 3 | 1.456 | 1.271 | 1.041 | A450 (absorbance at 450 nm) ([2]; standard conc 1.250 ng/ml): 0.763; A450 (absorbance at 450 nm) ([2]; standard conc 2.500 ng/ml): 0.551; A450 (absorbance at 450 nm) ([2]; standard conc 5.000 ng/ml): 0.398; A450 (absorbance at 450 nm) ([2]; standard conc 10.000 ng/ml): 0.287; A450 (absorbance at 450 nm) ([3]; standard conc 0.156 ng/ml): 0.816; A450 (absorbance at 450 nm) ([3]; standard conc 0.313 ng/ml): 0.570; A450 (absorbance at 450 nm) ([3]; standard conc 0.625 ng/ml): 0.375; A450 (absorbance at 450 nm) ([3]; standard conc 1.250 ng/ml): 0.237; A450 (absorbance at 450 nm) ([3]; standard conc 2.500 ng/ml): 0.151; A450 (absorbance at 450 nm) ([3]; standard conc 5.000 ng/ml): 0.093; A450 (absorbance at 450 nm) ([3]; standard conc 10.000 ng/ml): 0.057 |
| Clc1cccc(N2CCNCC2)c1 [mCPP, 1-(3-chlorophenyl)piperazine] | 46 | 8.476 (≈ 0.0431 µM) | 85 | 79 | 72 | 65 | 55 | 48 | 42 | 0.68 | 98 | 100 | 100 | 100 | 101 | 103 | 106 | 1.821 | 1.679 | 1.534 | A450 (absorbance at 450 nm) ([2]; standard conc 1.250 ng/ml): 1.380; A450 (absorbance at 450 nm) ([2]; standard conc 2.500 ng/ml): 1.183; A450 (absorbance at 450 nm) ([2]; standard conc 5.000 ng/ml): 1.027; A450 (absorbance at 450 nm) ([2]; standard conc 10.000 ng/ml): 0.888; A450 (absorbance at 450 nm) ([3]; standard conc 0.156 ng/ml): 1.721; A450 (absorbance at 450 nm) ([3]; standard conc 0.313 ng/ml): 1.755; A450 (absorbance at 450 nm) ([3]; standard conc 0.625 ng/ml): 1.756; A450 (absorbance at 450 nm) ([3]; standard conc 1.250 ng/ml): 1.759; A450 (absorbance at 450 nm) ([3]; standard conc 2.500 ng/ml): 1.782; A450 (absorbance at 450 nm) ([3]; standard conc 5.000 ng/ml): 1.814; A450 (absorbance at 450 nm) ([3]; standard conc 10.000 ng/ml): 1.857 |
